Laboratory results published in patent US20250163119A1, “COMPOUNDS FOR THE TREATMENT OF DIABETES OR OBESITY” (Eli Lilly and Company, priority 2023, published 2025).
*1 amine or outer side, *2 acyl side, *3 side chain or, on linkers, in order; H or OH if unused. Where a SMILES comes first, the peptide text is derived from it. Side-chain parts run from the residue outwards. [ ]: non-standard residue; d: D form. The star is where a group is joined. C20 diacid = O=C(O)CCCCCCCCCCCCCCCCCCC(=O)*; γGlu = O=C(O)[C@H](CCC(=O)[*:2])N[*:1]; NMeI = CC[C@H](C)[C@H](NC)C(=O)O; αMeL = CC(C)C[C@](C)(N)C(=O)O; AEEA = NCCOCCOCC(=O)O

Biological target: T1, CRHR1 receptor (Y79 cells) (Homo sapiens, UniProt P34998)
T1 construct: host or cells: Y79 human retinoblastoma cells
T1 sequence (P34998 24-415): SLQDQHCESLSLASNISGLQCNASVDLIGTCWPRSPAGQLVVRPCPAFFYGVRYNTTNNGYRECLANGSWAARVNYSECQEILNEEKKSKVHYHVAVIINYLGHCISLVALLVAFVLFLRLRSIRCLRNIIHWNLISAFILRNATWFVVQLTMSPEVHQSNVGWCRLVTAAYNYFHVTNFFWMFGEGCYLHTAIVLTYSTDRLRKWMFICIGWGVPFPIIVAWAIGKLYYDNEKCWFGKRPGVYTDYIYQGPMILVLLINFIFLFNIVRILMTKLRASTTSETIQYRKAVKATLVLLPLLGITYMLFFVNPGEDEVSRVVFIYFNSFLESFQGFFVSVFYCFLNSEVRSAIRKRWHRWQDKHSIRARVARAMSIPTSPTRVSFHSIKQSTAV
Test: Human Y79 cAMP assay (native cell line expressing endogenous CRHR1)
Assay type: cell-based
Conditions: human Y79 cells (CRHR1, no detectable CRHR2); mean ± SE
Protocol: Y79 cells, a human retinoblastoma cell line, express a high level of human CRHR1 with no detectable CRHR2. A7r5 cells, a rat aortic smooth muscle cell line, only express CRHR2 receptor with no detectable CRHR1. The rat CRHR2 gene shares 93% homology of nucleotides sequences with human CRHR2 and responds to human UCN2. Therefore, these two native cell lines were used for additional characterization of polypeptide selectivity.
Y79 cells were grown in a suspension culture as recommended by ATCC in the media containing RPMI (Gibco Cat #11875093) and 20% FBS (Gibco dialyzed Cat #26400044). Y79 cells were incubated at 37° C. with 5% CO2. A subcultivation was performed by removing the supernatant after centrifugation and suspending the cell pellet in fresh medium (A subcultivation ratio was 1:5). […]
The amount of intracellular cAMP was quantitated using HTRF technology (Homogeneous Time Resolved Fluorescence; Cisbio) as per vendor instructions. […] The HTRF signal was immediately detected using an Envision plate reader (Perkin-Elmer) to calculate the ratio of fluorescence at 665 to 620 nm. […]
Raw fluorescence data for concentration curves of the peptides in Table 2 and Table 3 were converted to cAMP amount (pmol/well) using a cAMP standard curve generated for each experiment.

## CC[C@H](C)[C@H](NC)C(=O)N[C@H](C(=O)N[C@H](C(=O)N[C@@H](CO)C(=O)N[C@@H](CC(C)C)C(=O)N[C@@H](CC(=O)O)C(=O)N[C@H](C(=O)N1CCC[C@H]1C(=O)N[C@H](C(=O)NCC(=O)N[C@@](C)(CC(C)C)C(=O)N[C@@H](CC(C)C)C(=O)N[C@@H](CCC(N)=O)C(=O)N[C@@H](CCCCN)C(=O)N[C@@H](CC(C)C)C(=O)N[C@H](C(=O)N[C@@H](CCC(=O)O)C(=O)N[C@@H](CCC(N)=O)C(=O)N[C@@H](CCC(=O)O)C(=O)N[C@@H](CCCCN)C(=O)N[C@@H](CCC(N)=O)C(=O)N[C@@H](CCC(=O)O)C(=O)N[C@@H](CCCCN)C(=O)N[C@@H](CCC(=O)O)C(=O)N[C@@H](CCCCN)C(=O)N[C@@H](CCC(N)=O)C(=O)N[C@@H](CCC(N)=O)C(=O)N[C@@H](C)C(=O)N[C@@H](CCCCNC(=O)COCCOCCNC(=O)COCCOCCNC(=O)CC[C@H](NC(=O)CCCCCCCCCCCCCCCCCCC(=O)O)C(=O)O)C(=O)N[C@@H](CCC(=O)O)C(=O)N[C@@H](CC(N)=O)C(=O)N[C@H](C(=O)N[C@@H](CCC(=O)O)C(=O)N[C@H](C(=O)N[C@@H](CC(C)C)C(=O)N[C@@H](C)C(=O)N[C@@H](CCC(N)=O)C(=O)N[C@H](C(N)=O)C(C)C)[C@@H](C)CC)[C@@H](C)O)[C@@H](C)CC)[C@@H](C)CC)C(C)C)[C@@H](C)O)C(C)C [SEQ ID NO: 49, (NMeI) VTSLDVPIG αMeL LQKLIEQEKQEKEKQQAK((2-[2-(2-Amino-ethoxy)-ethoxy]-acetyl)2-γE-CO-(CH2)18-CO2H)ENTEILAQV-NH2] (H-[NMeI]VTSLDVPIG[αMeL]LQKLIEQEKQEKEKQQAK([AEEA-AEEA-γGlu-C20 diacid])ENTEILAQV-NH2)
  EC50: > 1e+07 pM

## CC[C@H](C)[C@H](NC)C(=O)N[C@H](C(=O)N[C@H](C(=O)N[C@@H](CO)C(=O)N[C@@H](CC(C)C)C(=O)N[C@@H](CC(=O)O)C(=O)N[C@H](C(=O)N1CCC[C@H]1C(=O)N[C@H](C(=O)NCC(=O)N[C@@](C)(CC(C)C)C(=O)N[C@@H](CC(C)C)C(=O)N[C@@H](CCC(N)=O)C(=O)N[C@@H](CCCCN)C(=O)N[C@@H](CC(C)C)C(=O)N[C@@H](CC(C)C)C(=O)N[C@@H](CCC(=O)O)C(=O)N[C@@H](CCC(N)=O)C(=O)N[C@@H](CCC(=O)O)C(=O)N[C@@H](CCCNC(=N)N)C(=O)N[C@@H](C)C(=O)N[C@@H](CCC(=O)O)C(=O)N[C@@H](CCCCN)C(=O)N[C@@H](C)C(=O)N[C@@H](CCCNC(=N)N)C(=O)N[C@@H](CCC(N)=O)C(=O)N[C@@H](CCC(N)=O)C(=O)N[C@@H](C)C(=O)N[C@@H](CCCCNC(=O)COCCOCCNC(=O)COCCOCCNC(=O)CC[C@H](NC(=O)CCCCCCCCCCCCCCCCCCC(=O)O)C(=O)O)C(=O)N[C@@H](CCC(=O)O)C(=O)N[C@@H](C)C(=O)N[C@@H](C)C(=O)N[C@@H](CCC(=O)O)C(=O)N[C@H](C(=O)N[C@@H](CC(C)C)C(=O)N[C@@H](C)C(=O)N[C@@H](CCC(N)=O)C(=O)N[C@H](C(N)=O)C(C)C)[C@@H](C)CC)[C@@H](C)CC)C(C)C)[C@@H](C)O)C(C)C [SEQ ID NO: 50, (NMeI) VTSLDVPIG αMeL LQKLLEQERAEKARQQAK((2-[2-(2-Amino-ethoxy)-ethoxy]-acetyl)2-γE-CO-(CH2)18-CO2H)EAAEILAQV-NH2] (H-[NMeI]VTSLDVPIG[αMeL]LQKLLEQERAEKARQQAK([AEEA-AEEA-γGlu-C20 diacid])EAAEILAQV-NH2)
  EC50: > 1e+07 pM
